Assay results as given in patent US4593104A, “2-halo-N-(azole-1-yl-methyl)-substituted acetanilides” (BASF Aktiengesellschaft, priority 1976, dated 1986).

Legend:
Alopec. myosur. [1] = experiment: preemergence treatment in the greenhouse, % damage; format: in vivo
From the text: (§1) The vessels employed were plastic flowerpots having a volume of 300 cm^3; the substrate was a sandy loam containing about 1.5% humus. The seeds of the test plants (see Table 1) were sown shallow, and separated according to species. In the case of Cyperus esculentus, pregerminated tubers were planted. In the preemergence treatment, the active ingredients were then immediately applied to the surface of the soil. They were suspended or emulsified in water as the vehicle, and sprayed through atomizing nozzles. After the agents had been applied, the vessels were lightly sprinkler-irrigated to set germination and growth going, and to activate the chemical agents. The vessels were then covered with transparent plastic hoods until the plants had taken root. This cover ensured uniform germination of the test plants (to the extent that this was not impaired by the chemicals), and prevented readily volatile substances from evaporating.
(§2) For postemergence treatment, the plants were first grown to a height of from 3 to 10 cm, depending on their habit, before treated. Hoods were not placed on the pots. The experiments were set up in the greenhouse, hotter areas (25° to 40° C.) being preferred for heat-loving species, and 15° to 30° C. for plants from moderate climates. The experiments were carried out for from 4 to 6 weeks. During this period the plants were tended and their reaction to the various treatments was assessed. The following tables contain the substances investigated, the application rates in kg/ha of active ingredient, and the test plant species. Assessments were made on a 0 to 100 scale, 0 denoting no damage or normal emergence, and 100 denoting no emergence or complete destruction of at least the visible plant parts.

Brassica napus [2] = experiment: preemergence treatment in the greenhouse, % damage; format: in vivo
From the text: as §1, §2

Bromus spp. = experiment: preemergence treatment in the greenhouse, % damage; format: in vivo
From the text: as §1, §2

Echin. c.g. = experiment: preemergence treatment in the greenhouse, % damage; format: in vivo
From the text: as §1, §2

Matric. spp. = experiment: preemergence treatment in the greenhouse, % damage; format: in vivo
From the text: as §1, §2

Setaria spp. [3] = experiment: preemergence treatment in the greenhouse, % damage; format: in vivo
From the text: as §1, §2

Solanum nigrum = experiment: preemergence treatment in the greenhouse, % damage; format: in vivo
From the text: as §1, §2

Zea mays = experiment: preemergence treatment in the greenhouse, % damage; format: in vivo
From the text: as §1, §2

Beta vulg. [4] = experiment: Table 13, % damage; format: in vivo, Beta vulgaris
From the text: as §1, §2

Alopec. myosur. [5] = experiment: Table 13, % damage; format: in vivo
From the text: as §1, §2

Echin c.g. = experiment: Table 13, % damage; format: in vivo
From the text: as §1, §2

Setar. spp. = experiment: Table 13, % damage; format: in vivo
From the text: as §1, §2

Amar. retro. = experiment: preemergence treatment in the greenhouse, % damage; format: in vivo
From the text: as §1, §2

Cyp. diff. = experiment: preemergence treatment in the greenhouse, % damage; format: in vivo
From the text: as §1, §2

Poa annua = experiment: preemergence treatment in the greenhouse, % damage; format: in vivo
From the text: as §1, §2

Sorgh. halep. = experiment: preemergence treatment in the greenhouse, % damage; format: in vivo
From the text: as §1, §2

Alopec. myosur. [6] = experiment: preemergence application in the open, % damage; format: in vivo; details: 2.0 kg/ha
Experimental: (§3) The experiments were carried out on small plots. The soil was a sandy loam having a pH of from 5 to 6 and containing from 1 to 1.5% humus. The treatment was preemergence, the active ingredients being applied immediately or at the latest 3 days after sowing. The crop plants were sown in rows. The weed flora was made up of the most widely varying species and was natural; the weed flora depended on the time of the year and in part on the crop (e.g., spring-germinating, summer-germinating). The substances were emulsified or suspended in water as the vehicle, and applied by means of a motor-driven plot spray mounted on a hitch. When no rain fell, the plots were watered to ensure germination and growth of the crop plants and weeds. All the experiments were run for several weeks. Over this period, assessments were made at certain intervals on the 0 to 100 scale.

Anth./Matric. = experiment: preemergence application in the open, % damage; format: in vivo; details: 2.0 kg/ha
Experimental: as §3

Brassica napus [7] = experiment: preemergence application in the open, % damage; format: in vivo; details: 2.0 kg/ha
Experimental: as §3

Lamium spp. = experiment: preemergence application in the open, % damage; format: in vivo; details: 2.0 kg/ha
Experimental: as §3

Stellaria media = experiment: preemergence application in the open, % damage; format: in vivo; details: 2.0 kg/ha
Experimental: as §3

Avena fat. = experiment: postemergence application in the greenhouse, % damage; format: in vivo
From the text: as §1, §2

Setaria spp. [8] = experiment: as above; format: in vivo
From the text: as §1, §2

Stell. med. = experiment: as above; format: in vivo
From the text: as §1, §2

Cyper. escul. = experiment: as above; format: in vivo, Cyperus esculentus
From the text: as §1, §2

Cyperus ferax = experiment: preemergence treatment in the greenhouse, % damage; format: in vivo
From the text: as §1, §2

Glyc. max = experiment: preemergence treatment in the greenhouse, % damage; format: in vivo, Glycine max
From the text: as §1, §2

Beta vulg. [9] = experiment: preemergence treatment in the greenhouse, % damage; format: in vivo, Beta vulgaris
From the text: as §1, §2

Cc1ccccc1N(Cn1cccn1)C(=O)CCl
% damage (Alopec. myosur. [1]; 2.0 kg/ha): 90% | % damage (Brassica napus [2]; 2.0 kg/ha): 0% | % damage (Bromus spp.; 2.0 kg/ha): 80% | % damage (Echin. c.g.; 2.0 kg/ha): 95% | % damage (Matric. spp.; 2.0 kg/ha): 90% | % damage (Setaria spp. [3]; 2.0 kg/ha): 95% | % damage (Solanum nigrum; 2.0 kg/ha): 95% | % damage (Zea mays; 2.0 kg/ha): 15%

CCc1cccc(C)c1N(Cn1cnc(Cl)c1Cl)C(=O)CCl
% damage (Beta vulg. [4]; appl. rate 0.5): 0% | % damage (Beta vulg. [4]; appl. rate 1.0): 0% | % damage (Alopec. myosur. [5]; appl. rate 0.5): 100% | % damage (Alopec. myosur. [5]; appl. rate 1.0): 100% | % damage (Echin c.g.; appl. rate 0.5): 100% | % damage (Echin c.g.; appl. rate 1.0): 100% | % damage (Setar. spp.; appl. rate 0.5): 100% | % damage (Setar. spp.; appl. rate 1.0): 100%

Cc1ccccc1N(Cn1nccc1C)C(=O)CCl
% damage (Alopec. myosur. [1]; 2.0 kg/ha): 90% | % damage (Brassica napus [2]; 2.0 kg/ha): 10% | % damage (Bromus spp.; 2.0 kg/ha): 90% | % damage (Echin. c.g.; 2.0 kg/ha): 95% | % damage (Matric. spp.; 2.0 kg/ha): 90% | % damage (Setaria spp. [3]; 2.0 kg/ha): 100% | % damage (Solanum nigrum; 2.0 kg/ha): 100% | % damage (Zea mays; 2.0 kg/ha): 0%

Cc1cc(C)n(CN(C(=O)CCl)c2c(C)cccc2C)n1 [Compound 38]
% damage (Amar. retro.; 0.125 kg/ha): 75% | % damage (Amar. retro.; 0.25 kg/ha): 100% | % damage (Bromus spp.; 0.125 kg/ha): 95% | % damage (Bromus spp.; 0.25 kg/ha): 100% | % damage (Cyp. diff.; 0.125 kg/ha): 100% | % damage (Cyp. diff.; 0.25 kg/ha): 100% | % damage (Poa annua; 0.125 kg/ha): 100% | % damage (Poa annua; 0.25 kg/ha): 100% | % damage (Sorgh. halep.; 0.125 kg/ha): 70% | % damage (Sorgh. halep.; 0.25 kg/ha): 95% | % damage (Alopec. myosur. [6]): 80% | % damage (Anth./Matric.): 100% | % damage (Brassica napus [7]): 0% | % damage (Lamium spp.): 100% | % damage (Stellaria media): 88% | % damage (Avena fat.; 1.0 kg/ha): 70% | % damage (Avena fat.; 2.0 kg/ha): 90% | % damage (Setaria spp. [8]; 1.0 kg/ha): 85% | % damage (Setaria spp. [8]; 2.0 kg/ha): 85% | % damage (Stell. med.; 1.0 kg/ha): 100% | % damage (Stell. med.; 2.0 kg/ha): 100% | % damage (Cyper. escul.; 1.0 kg/ha): 80% | % damage (Cyper. escul.; 2.0 kg/ha): 80%

CCc1cccc(C)c1N(Cn1cc(OC)cn1)C(=O)CCl
% damage (Alopec. myosur. [1]; 0.5 kg/ha): 100% | % damage (Alopec. myosur. [1]; 1.0 kg/ha): 100% | % damage (Bromus spp.; 0.5 kg/ha): 90% | % damage (Bromus spp.; 1.0 kg/ha): 98% | % damage (Cyperus ferax; 0.5 kg/ha): 100% | % damage (Cyperus ferax; 1.0 kg/ha): 100% | % damage (Echin. c.g.; 0.5 kg/ha): 100% | % damage (Echin. c.g.; 1.0 kg/ha): 100% | % damage (Matric. spp.; 0.5 kg/ha): 98% | % damage (Matric. spp.; 1.0 kg/ha): 98% | % damage (Setaria spp. [3]; 0.5 kg/ha): 100% | % damage (Setaria spp. [3]; 1.0 kg/ha): 100% | % damage (Glyc. max; 0.5 kg/ha): 0% | % damage (Glyc. max; 1.0 kg/ha): 0% | % damage (Beta vulg. [9]; 0.5 kg/ha): 5% | % damage (Beta vulg. [9]; 1.0 kg/ha): 15%

Cc1cccc(C)c1N(Cn1cnc(Cl)c1Cl)C(=O)CCl
% damage (Beta vulg. [4]; appl. rate 0.5): 0% | % damage (Beta vulg. [4]; appl. rate 1.0): 0% | % damage (Alopec. myosur. [5]; appl. rate 0.5): 80% | % damage (Alopec. myosur. [5]; appl. rate 1.0): 80% | % damage (Echin c.g.; appl. rate 0.5): 100% | % damage (Echin c.g.; appl. rate 1.0): 100% | % damage (Setar. spp.; appl. rate 0.5): 100% | % damage (Setar. spp.; appl. rate 1.0): 100%

Cc1cc(C)n(CN(C(=O)CCl)c2ccccc2C)n1
% damage (Alopec. myosur. [1]; 1.0 kg/ha): 85% | % damage (Brassica napus [2]; 1.0 kg/ha): 10% | % damage (Bromus spp.; 1.0 kg/ha): 95% | % damage (Echin. c.g.; 1.0 kg/ha): 85% | % damage (Matric. spp.; 1.0 kg/ha): 90% | % damage (Setaria spp. [3]; 1.0 kg/ha): 60% | % damage (Solanum nigrum; 1.0 kg/ha): 100% | % damage (Zea mays; 1.0 kg/ha): 0%
